{"source": "patent US20060276385A1", "about": "“Anti-inflammatory agents and methods of their use” (priority 2003, published 2006)", "key": {"MAE-p47−/− cells": {"tested_on": "MAE-p47−/− cells", "assay": "Monocyte adhesion to p47phox-null endothelial cells, with or without p47phox transfection", "type": "cell-based, mouse", "details": "18 hrs", "method": "Endothelial cells: Mouse aortic endothelial cells (MAEC) were cultured and used at passages 4-8 as described (Cai, H., et al. (2002) J Bio Chem 107, 48311-48317). Human aortic endothelial cells (HAEC) purchased from Clonetics were cultured using EGM-2 bullet kit (Clonetics) and used at passages 4-8. Alternatively, endothelial cells obtained from the thoracic aortas of C57/BL6 control (MAE-wt) and p47^phox-null mice (MAE-p47^−/−) were isolated and cultured as described previously (Hwang, J. et al. (2003) J Biol Chem 278:47291-8), and used between passages 4-10.\nMonocyte Adhesion: Monocyte binding was determined under no-flow conditions using THP-1 monocytes (ATCC) by the method described by Chappel et al (Chappell, D. C., et al. (1998) Circ Res 82, 532-539). Briefly, THP-1 cells (5×10^5 cells/ml) were labeled with a fluorescent dye 2′,7′-bis(carboxyethyl)-5(6)-carboxyfluorescein-AM (BCECF, Molecular Probes) (1 mg/ml) in serum-free RPMI medium for 45 min at 37° C. Following exposure to shear stress or BMP treatments in the presence or absence of noggin or vehicle, the endothelial cells were washed in RPMI medium before adding BCECF-loaded THP-1 cells (1:1 ratio). After a 30 min incubation at 37° C. under no-flow conditions, unbound monocytes were removed by washing the endothelial dishes 5 times with Hank's PBS. Bound monocytes were quantified by either counting the cells under a fluorescent microscope or by measuring the fluorescent intensity of cell lysates by fluorescence spectrophotometry using a plate reader. […] Some studies were performed with MAEC pretreated with 5 μg/ml of mouse-ICAM1 antibody (YN1, Southern Biolechonology) (Kevil, C. G., et al. (2001) Am J Physiol Cell Physiol 281, C1442-1447).\nTransfection of p47phox: In some studies MAE-p47^−/− cells were trasnfected withp47phox expression vector or an empty vector as described (Hwang, J. et al. (2003) J Biol Chem278-47291-8).\nNext, monocyte adhesion was determined in these cells. […] After 18 hrs, cells were washed and monocyte binding was determined as described in FIG. 7. […]"}, "VCAM-1": {"tested_on": "VCAM-1", "assay": "VCAM-1 expression in endothelial cells", "type": "cell-based, human", "method": "Fluorescence activated cytometry sorting (FACS) analysis: Treated cells were dissociated into single cell suspensions using 0.25% trypsin-EDTA and resuspended in a FACS buffer (Hank's buffered solution containing 5% FBS). Aliquots of cell suspensions were incubated with ICAM-1 antibody (R&D Systems) for 20 min on ice, washed twice with FACS buffer, and incubated with secondary antibody (fluorescein-5-isothiocyanate- or phycoerytherin-conjugated, Chemicon) for 20 min on ice in the dark. Then samples were washed again, fixed in 1% paraformaldehyde and analyzed by FACS (Calibur, Becton-Dickinson) using CellQuest software. The fluorescence intensity of ICAM-1 and forward cell scattering of 30,000 cells were measured and the geometric means calculated from histograms were shown. In some studies, HAEC were transfected with either BMP4 cloned in a bi-cistronic pAdTrack CMV vector or an empty vector, both expressing green fluorescent protein (GFP), using Lipofectamine 2000. In these experiments, ICAM-1 expression was measured in the red phycoerytherin channel, while the green channel was used to monitor the […] expression-GFP expression was determined by FACS analysis and fluorescence microscopy (20-30% transfection efficiency). Because expression of GFP was similar among different treatment groups within the same experiment, it was unnecessary to normalize ICAM-1 expression data to GFP level. Human recombinant noggin was purchased from R&D Systems and used in all experiments at 50 ng/ml (Dale, L., and Jones, C. M. (1999) Bioessays 21, 751-760; Zimmerman, L. B., et al. (1996) Cell 86, 599-606; Brunei, L. J., et al. (1998) Science 280, 1455-1457).\n(§1) HAEC treated with OS, BMP4 or static condition were analyzed by FACS using antibodies specific to VCAM-1 (C) and E-selectin (D) as described in panel A using TNFa (1OOU/ml, for 2 hr) as a positive control."}, "E-selectin": {"tested_on": "E-selectin", "assay": "E-selectin surface expression by FACS analysis in HAEC", "type": "cell-based, human", "details": "TNF-α 100 U/ml for 2 hr as positive control", "method": "Fluorescence activated cytometry sorting (FACS) analysis: Treated cells were dissociated into single cell suspensions using 0.25% trypsin-EDTA and resuspended in a FACS buffer (Hank's buffered solution containing 5% FBS). Aliquots of cell suspensions were incubated with ICAM-1 antibody (R&D Systems) for 20 min on ice, washed twice with FACS buffer, and incubated with secondary antibody (fluorescein-5-isothiocyanate- or phycoerytherin-conjugated, Chemicon) for 20 min on ice in the dark. Then samples were washed again, fixed in 1% paraformaldehyde and analyzed by FACS (Calibur, Becton-Dickinson) using CellQuest software. The fluorescence intensity of ICAM-1 and forward cell scattering of 30,000 cells were measured and the geometric means calculated from histograms were shown. […] In these experiments, ICAM-1 expression was measured in the red phycoerytherin channel, while the green channel was used to monitor the […] expression-GFP expression was determined by FACS analysis and fluorescence microscopy (20-30% transfection efficiency). […]\nas §1"}, "MAE-wt cells": {"tested_on": "MAE-wt cells", "assay": "O2− assay by electron spin resonance spectroscopy with CMH spin probe", "type": "cell-based, mouse", "details": "MAE-wt cells, BMP4 200 ng/ml for 18 hrs, SOD-inhibitable CM signal", "method": "O2^− Assay: O2^− production was determined by electron spin resonance spectroscopy using methoxycarbonyl-2,2,5,5-tetramethyl-pyrrolidine (CMH) as a spin probe in the presence or absence of PEG-superoxide dismutase (PEG-SOD; 50 U/ml) to quantify the SOD-inhibitable portions of CM.\nIn FIG. 10A immediately following treatment of MAE wt cells with BMP4 (200 ng/ml) for 18 hrs, cells were trypsinized and reconstituted in Krebs-Hepes buffer. Equal number of cells was incubated with a spin trap CMH in the presence or absence of PEG-SOD (50 U/mL). The specific O2^− production was calculated by subtracting SOD-inhibitable portions from total O2^− production as determined by following CM production (mean±SEM, n=3, *p<0.05)."}}, "data": [{"substance": "BMP4", "values": [{"measurement": "increase in monocyte adhesion above the control", "setting": "MAE-p47−/− cells; MAE-p47−/− cells transfected with p47phox (rescued), BMP4 20 ng/ml or TNF-α 100 U/ml", "result": "4- to 5 fold"}, {"measurement": "monocyte adhesion response", "setting": "MAE-p47−/− cells; MAE-p47−/− cells, BMP4 20 ng/ml", "result": "failed to stimulate monocyte adhesion"}, {"measurement": "effect on VCAM-1", "setting": "VCAM-1; FIG. 5E study, p>0.05, n=3", "result": "marginal at best and not significant"}, {"measurement": "effect on surface expression of VCAM-1", "setting": "VCAM-1; HAEC, FACS, TNF-α 100 U/ml for 2 hr as positive control", "result": "neither OS nor BMP4 had any effect"}, {"measurement": "effect on surface expression of E-selectin", "setting": "E-selectin", "result": "neither OS nor BMP4 had any effect"}, {"measurement": "O2− production above control", "setting": "MAE-wt cells", "result": 2.9, "unit": "fold"}]}]}
